# Laboratory results: patent US11512056B2 (Anhui New Star Pharmaceutical Development Co., Ltd, priority 2018, dated 2022)
# Where “and” joins values, the source holds several entries; their conditions need not be identical. Identical values can stand only once.
# Experiments:
# platelets (rabbit blood) = assay: Inhibition of platelet aggregation in vitro (rabbit blood), ADP-induced, turbidimetric; type: cell-based, New Zealand white rabbits; conditions: Oryctolagus cuniculus, rabbit PRP, ADP final concentration 10 μM
# From the text: Blood was collected from New Zealand white rabbits (body weight 1-1.5 kg). After the animal was anesthetized with 10% chloral hydrate, the animal was placed supinely on the rabbit board, precordial hair was cut off, and the skin was disinfected with iodine and alcohol. Touch with left hand the 3rd to 4th intercostal space on the left edge of the sternum. Chose the most obvious place for the puncture point. Held the syringe in right hand and insert the needle into the chest cavity. Inserted the needle into the heart and then draw out the blood when feel the heart beating through the needle. […] assay system with a total volume of 300 μL, that is, 280 μL of diluted PRP was taken and placed in a turbidimetric tube, and was incubated with 10 μL of drug or solvent control at 37° C. for 5 minutes, and then 10 μL of different inducers such ADP (final concentration 10 μM) were added to determine the maximum platelet aggregation rate within 5 minutes. Repeation was taken at least three times […].
# Platelet-rich plasma (PRP) was obtained by centrifuging blood at 1200 rpm for 10 minutes, and platelet aggregation was measured as described above. […] The platelet density in PRP is counted with a hemocytometer and diluted with platelet-poor plasma (PPP). […]
# human platelets [1] = assay: ADP-induced aggregation of human platelets (PRP, turbidimetric); type: cell-based; conditions: for inhibition at 0.005 µM: concentration 0.005 μM; for inhibition at 0.01 µM: concentration 0.01 μM; for inhibition at 5 µM: concentration 5 μM; for inhibition at 10 µM: concentration 10 μM; for IC50: read-out: IC50 of compound on ADP-induced platelet aggregation rate
# Protocol: Volunteers' whole blood was drawn from venous blood with 1:6 dextro-citrate ACD (85 mmol/L sodium citrate, 71.38 mmol/L citrate, 27.78 mmol/L glucose) for anticoagulation, and centrifuged at 300 g at room temperature for 10 minutes, platelet rich plasma (PRP) was separated.
# (§1) The turbidimetric platelet aggregation test was performed on the Chrono-Log Company's dual-channel optical platelet aggregation instrument. The speed of the icon recorder was set to 1 cm/min, and the aggregation curve was recorded. First, the platelet aggregator was preheated to 37° C., 400 μL platelet suspension and stir bar were added to the turbidity tube, use PPP as a reference, and traced the baseline under constant magnetic stirring at 37° C. After the baseline was stable, with experiment plan, different concentrations of antagonists or other reagents were added to treat platelets for 2 minutes, and then the inducer ADP was added to observe and record changes in the aggregation curve.
# human platelets [2] = assay: Collagen-induced aggregation of human platelets (PRP, turbidimetric); type: cell-based
# Protocol: Volunteers' whole blood was drawn from venous blood with 1:6 dextro-citrate ACD (85 mmol/L sodium citrate, 71.38 mmol/L citrate, 27.78 mmol/L glucose) for anticoagulation, and centrifuged at 300 g at room temperature for 10 Minutes, separate platelet rich plasma (PRP).
# The turbidimetric platelet aggregation test was performed on the Chrono-Log Company's dual-channel optical platelet aggregation instrument. The speed of the icon recorder was set to 1 cm/min, and the aggregation curve was recorded. First, the platelet aggregator was preheated to 37° C., and 400 μL platelet suspension and stir bar were added to the turbidity tube, PPP was used as a reference, and traced the baseline under constant magnetic stirring at 37° C. After the baseline was stable, with the experiment plan, different concentrations of antagonist or other reagents were added to treat platelets for 2 minutes, and then inducer collagen was added to observe and record changes in the aggregation curve.
# The platelet aggregation rate of the solvent control group was set to be 100%. The inhibitory effects of the compounds on normal human platelet aggregation induced by collagen at different concentrations were as follows: […]
# human platelets [3] = assay: Thrombin-induced human platelet aggregation (PRP, turbidimetric); type: cell-based; conditions: for inhibition at 0.003 µM: concentration 0.003 μM; for IC50: read-out: IC50 on thrombin-induced platelet aggregation rate
# Protocol: Volunteers' whole blood was drawn from venous blood with 1:6 D-citrate ACD (85 mmol/L sodium citrate, 71.38 mmol/L citrate, 27.78 mmol/L glucose) for anticoagulation, and centrifuged at 300 g at room temperature for 10 minutes, platelet rich plasma (PRP) was separated.
# as §1, with “C., and” for “C.,”, “tube,” for “tube, use”, “PPP was used” for “PPP”, “baseline is” for “baseline was”, “with the” for “with”
# arterial thrombosis = assay: SD male rat arteriovenous short circuit thrombosis model (A-V shunt); type: in vivo, male SD rats
# Protocol: Cut the surgical wire with a length of 6 cm, weigh and recorded it on an analytical balance (about 2 mg dry weight), and placed it in a thick polyethylene tube with a length of 6 cm. Inserted a thin tube at each end of the thick tube spare. Male SD rats were intragastrically administered for 4 hours, anesthetized with pentobarbital 60 mg/kg, separated the common carotid artery and common jugular vein, connected the arteries and veins with the above polyethylene tube, opened the blood flow for 15 minutes, removed the surgical line and weighed (WW).
# [4] = 10 μM ADP, concentration 0.1 μM
# [5] = Homo sapiens, Platelet, 10 μM ADP, read-out: Aggregation inhibition rate %
# [6] = Homo sapiens, Platelet, 10 μM ADP, concentration 3 μM, read-out: Aggregation inhibition rate %
# [7] = Homo sapiens, Platelet, column 1
# [8] = Homo sapiens, Platelet, column 2
# [9] = Homo sapiens, Platelet, column 3
# [10] = 1 μg/ml collagen, concentration 0.01 μM, 0.01 µM
# [11] = Homo sapiens, Platelet, 1 μg/ml collagen, concentration 3 μM, read-out: Aggregation inhibition rate %
# [12] = Homo sapiens, Platelet, column 1, read-out: IC50 of compound on collagen-induced platelet aggregation rate
# [13] = Homo sapiens, Platelet, column 2, read-out: IC50 of compound on collagen-induced platelet aggregation rate
# [14] = Homo sapiens, Platelet, column 3, read-out: IC50 of compound on collagen-induced platelet aggregation rate
# [15] = Homo sapiens, Platelet, 0.5 U/ml thrombin, read-out: Aggregation inhibition rate %
# [16] = Homo sapiens, Platelet, 0.5 U/ml thrombin, concentration 0.01 μM, read-out: Aggregation inhibition rate %
# [17] = Homo sapiens, Platelet, 0.5 U/ml thrombin, concentration 20 μM, read-out: Aggregation inhibition rate %
smiles,measurement,setting,value
CCC(=O)NC(=N)Nc1ccc(C2=NNC(=O)CC2C)cc1 (stereo not drawn),IC50,platelets (rabbit blood),334 nM
"CC1CC(=O)NN=C1c1ccc(NC(=N)N)cc1 (stereo not drawn) [No. 1, 1-(4-(4-methyl-6-oxo-1,4,5,6-tetrahydropyridazin-3-yl)phenyl)guanidine]",IC50,platelets (rabbit blood),197 nM
same,Aggregation inhibition rate %,"human platelets [1]; 10 μM ADP, concentration 0.03 μM, listed as Compound No.1",17.39%
same,Aggregation inhibition rate %,"human platelets [1]; 10 μM ADP, concentration 0.03 μM, listed as No.1 Compound",49.01%
same,Aggregation inhibition rate %,human platelets [1]; [4],37.68%
same,Aggregation inhibition rate %,"human platelets [1]; 10 μM ADP, concentration 0.3 μM, listed as Compound No.1",39.13%
same,Aggregation inhibition rate %,"human platelets [1]; 10 μM ADP, concentration 0.3 μM, listed as No.1 Compound",62.74%
same,Aggregation inhibition rate %,"human platelets [1]; 10 μM ADP, concentration 1 μM, listed as Compound No.1",42.02%
same,Aggregation inhibition rate %,"human platelets [1]; 10 μM ADP, concentration 1 μM, listed as No.1 Compound",66.67%
same,Aggregation inhibition rate %,"human platelets [1]; 10 μM ADP, concentration 3 μM",51.88%
same,inhibition at 0.005 µM,human platelets [1]; [5],2.99%
same,inhibition at 0.01 µM,human platelets [1]; [5],8.69%
same,inhibition at 0.1 µM,"human platelets [1]; Homo sapiens, Platelet, 10 μM ADP, concentration 0.1 μM, read-out: Aggregation inhibition rate %",43.1%
same,inhibition at 3 µM,human platelets [1]; [6],71.6%
same,inhibition at 5 µM,human platelets [1]; [5],81.4%
same,inhibition at 10 µM,human platelets [1]; [5],95.1%
same,IC50,human platelets [1]; [7],97 nM
same,IC50,human platelets [1]; [8],1080 nM
same,IC50,human platelets [1]; [9],154 nM
same,inhibitory effect on platelet aggregation induced by collagen,human platelets [2]; 1 μg/ml collagen,significant inhibitory effect
same,Aggregation inhibition rate %,human platelets [2]; [10],8.96% and 10.94%
same,Aggregation inhibition rate %,"human platelets [2]; 1 μg/ml collagen, concentration 0.3 μM, 0.3 µM",79.10% and 44.78% and 54.69%
same,Aggregation inhibition rate %,"human platelets [2]; 1 μg/ml collagen, concentration 1 μM, 1 µM",80.59% and 95.31%
same,inhibition at 0.003 µM,"human platelets [2]; Homo sapiens, Platelet, 1 μg/ml collagen, concentration 0.003 μM, read-out: Aggregation inhibition rate %",5.97%
same,inhibition at 0.01 µM,"human platelets [2]; Homo sapiens, Platelet, 1 μg/ml collagen, concentration 0.01 μM, read-out: Aggregation inhibition rate %",10.4%
same,inhibition at 1 µM,"human platelets [2]; Homo sapiens, Platelet, 1 μg/ml collagen, concentration 1 μM, read-out: Aggregation inhibition rate %",95.9%
same,inhibition at 3 µM,human platelets [2]; [11],100%
same,IC50,"human platelets [2]; Homo sapiens, Platelet, 1 μg/ml collagen, read-out: IC50 on platelet aggregation induced by collagen",157 nM
same,IC50,human platelets [2]; [12],95 nM
same,IC50,human platelets [2]; [13],233 nM
same,IC50,human platelets [2]; [14],143 nM
same,Aggregation inhibition rate %,"human platelets [3]; 0.5 U/ml thrombin, concentration 0.01 μM, 0.01 µM",2.81%
same,Aggregation inhibition rate %,"human platelets [3]; 0.5 U/ml thrombin, concentration 0.1 μM, 0.1 µM",46.03% and 40.98% and 65.21%
same,Aggregation inhibition rate %,"human platelets [3]; 0.5 U/ml thrombin, concentration 0.3 μM, 0.3 µM",80.95% and 89.85%
same,Aggregation inhibition rate %,"human platelets [3]; 0.5 U/ml thrombin, concentration 1 μM, 1 µM",95.83% and 97.33%
same,inhibition at 0.003 µM,human platelets [3]; [15],0%
same,inhibition at 0.01 µM,human platelets [3]; [16],3.08%
same,inhibition at 0.3 µM,"human platelets [3]; Homo sapiens, Platelet, 0.5 U/ml thrombin, concentration 0.3 μM, read-out: Aggregation inhibition rate %",71.4%
same,inhibition at 1 µM,"human platelets [3]; Homo sapiens, Platelet, 0.5 U/ml thrombin, concentration 1 μM, read-out: Aggregation inhibition rate %",85.7%
same,inhibition at 3 µM,"human platelets [3]; Homo sapiens, Platelet, 0.5 U/ml thrombin, concentration 3 μM, read-out: Aggregation inhibition rate %",100%
same,inhibition at 10 µM,"human platelets [3]; Homo sapiens, Platelet, 0.5 U/ml thrombin, concentration 10 μM, read-out: Aggregation inhibition rate %",100%
same,inhibition at 20 µM,human platelets [3]; [17],100%
same,IC50,human platelets [3]; [7],194 nM
same,IC50,human platelets [3]; [8],140 nM
same,IC50,human platelets [3]; [9],78 nM
same,Thrombus wet weight,"arterial thrombosis; 10 mg/kg intragastric, 4 hours before, blood flow 15 minutes, individual values",11.7 mg and 11.5 mg and 12.1 mg
same,weight of arterial thrombus in rats,arterial thrombosis; intragastric administration,significantly reduced
"CCCSc1nc(N[C@@H]2C[C@H]2c2ccc(F)c(F)c2)c2nnn([C@@H]3C[C@H](OCCO)[C@@H](O)[C@H]3O)c2n1 [Ticagrelor, reference compound]",Aggregation inhibition rate %,"human platelets [1]; 10 μM ADP, concentration 0.03 μM",13.69%
same,Aggregation inhibition rate %,human platelets [1]; [4],15.06%
same,Aggregation inhibition rate %,"human platelets [1]; 10 μM ADP, concentration 0.3 μM",20.54%
same,Aggregation inhibition rate %,"human platelets [1]; 10 μM ADP, concentration 1 μM",57.53%
same,Aggregation inhibition rate %,"human platelets [1]; 10 μM ADP, concentration 3 μM",86.30%
same,inhibition at 0.005 µM,human platelets [1]; [5],0%
same,inhibition at 0.01 µM,human platelets [1]; [5],4.11%
same,inhibition at 3 µM,human platelets [1]; [6],100%
same,inhibition at 5 µM,human platelets [1]; [5],100%
same,inhibition at 10 µM,human platelets [1]; [5],100%
same,IC50,human platelets [1]; [7],72 nM
same,IC50,human platelets [1]; [8],963 nM
same,IC50,human platelets [1]; [9],261 nM
same,Aggregation inhibition rate %,"human platelets [2]; 1 μg/ml collagen, concentration 0.003 μM, 0.003 µM",4.23% and 1.45%
same,Aggregation inhibition rate %,human platelets [2]; [10],8.69% and 2.98% and 9.86%
same,Aggregation inhibition rate %,"human platelets [2]; 1 μg/ml collagen, concentration 0.03 μM, 0.03 µM",8.95% and 15.49%
same,Aggregation inhibition rate %,"human platelets [2]; 1 μg/ml collagen, concentration 3 μM, 3 µM",66.17% and 64.78%
same,Aggregation inhibition rate %,"human platelets [2]; 1 μg/ml collagen, concentration 10 μM, 10 µM",75% and 92.95%
same,inhibition at 0.03 µM,"human platelets [2]; Homo sapiens, Platelet, 1 μg/ml collagen, concentration 0.03 μM, read-out: Aggregation inhibition rate %",13%
same,inhibition at 3 µM,human platelets [2]; [11],75.4%
same,inhibition at 10 µM,"human platelets [2]; Homo sapiens, Platelet, 1 μg/ml collagen, concentration 10 μM, read-out: Aggregation inhibition rate %",82.6%
same,inhibition at 20 µM,"human platelets [2]; Homo sapiens, Platelet, 1 μg/ml collagen, concentration 20 μM, read-out: Aggregation inhibition rate %",100%
same,IC50,human platelets [2]; [12],888 nM
same,IC50,human platelets [2]; [13],532 nM
same,IC50,human platelets [2]; [14],908 nM
same,Aggregation inhibition rate %,"human platelets [3]; 0.5 U/ml thrombin, concentration 3 μM, 3 µM",69.84% and 49.33% and 92.53%
same,Aggregation inhibition rate %,"human platelets [3]; 0.5 U/ml thrombin, concentration 10 μM, 10 µM",80.95% and 55.41%
same,Aggregation inhibition rate %,"human platelets [3]; 0.5 U/ml thrombin, concentration 20 μM, 20 µM",81.33%
same,inhibition at 0.003 µM,human platelets [3]; [15],0%
same,inhibition at 0.01 µM,human platelets [3]; [16],0%
same,inhibition at 20 µM,human platelets [3]; [17],95.2%
same,IC50,human platelets [3]; [7],851 nM
same,IC50,human platelets [3]; [8],4020 nM
same,IC50,human platelets [3]; [9],161 nM
